Reference: patent publication US20240042015A1 (Orna Therapeutics, Inc., priority 2020, published 2024)
Entries after “also recorded” stand apart in the source; their conditions may differ.

Legend:
splenic immune cells = assay: In vivo Cre circRNA LNP transfection in Ai9 Cre reporter mice, tdTomato+ splenic immune cells; conditions: 0.5 mg/kg RNA intravenously, 48 hr
Procedure: Circular RNAs encoding Cre recombinase (Cre) are encapsulated into lipid nanoparticles as previously described. Female, 6-8 week old B6.Cg-Gt(ROSA)26Sortm9(CAG-tdTomato)Hze/J (Ai9) mice were dosed with lipid nanoparticles at 0.5 mg/kg RNA intravenously. Fluorescent tdTomato protein was transcribed and translated in Ai9 mice upon Cre recombination, meaning circular RNAs have been delivered to and translated in tdTomato+ cells. After 48 hr, mice were euthanized and the spleens were harvested, processed into a single cell suspension, and stained with various fluorophore-conjugated antibodies for immunophenotyping via flow cytometry.
Ai9 mice injected with PBS represented background tdTomato fluorescence.
FIG. 45C illustrates the proportion of additional splenic immune cell populations expressing tdTomato with Lipids 10a-27 and 10a-26 (mean+std. dev., n=3), which also include NK cells (NKp46+, TCR-B−), classical monocytes (CD11b+, Ly-6G−, Ly-6C_hi), nonclassical monocytes (CD11b+, Ly-6G−, Ly-6C_lo), neutrophils (CD11b+, Ly-6G+), and dendritic cells (CD11c+, MHC-II+).
Ai9 mice (B6.Cg-Gt(ROSA)26Sortm9(CAG-tdTomato)Hze/J, female, 6-8 weeks, n=3 per group) were injected i.v. with 0.5 mg/kg Cre circRNA LNPs or PBS. Ai9 mice transcribe and translate the fluorescent reporter tdTomato upon Cre recombination; meaning cells which are tdTomato+ have successfully been transfected with Cre circRNA. After 48 hours, mice were euthanized and their spleens were collected and manually processed into single cell suspensions. The splenocytes were stained for dead cells (LiveDead Fixable Aqua, Thermo) and with anti-mouse antibodies (TCR-B chain, BV421, H57-597; CD45, BV711, 30-F11; CD11b, BV785, ICRF44; NKp46, AF647, 29A1.4; CD19, APC/750, 6D5; TruStain FcX, 93; all antibodies from Biolegend) at 1:200 ratio. Flow cytometry was performed using an Attune Nxt Flow Cytometer (Thermo).

CD-1 or c57BL/6J mice = assay: In vivo IVIS analysis of FLuc circRNA LNPs (whole body and ex vivo organs); conditions: for spleen to liver ratios: ex vivo IVIS analysis of tissues
Procedure: Lipid Nanoparticles (LNPs) were formed using a Precision Nanosystems Ignite instrument with a ‘NextGen’ mixing chamber. […] A 3:1 aqueous to ethanol mixing ratio was used. The formulated LNP then were dialyzed in 1 L of water and exchanged 2 times over 18 hours. Dialyzed LNPs were filtered using 0.2 µm filter. Prior to in vivo dosing, LNPs were diluted in PBS. LNP sizes were determined by dynamic light scattering. A cuvette with 1 mL of 20 μg/mL LNPs in PBS (pH 7.4) was measured for Z-average using the Malvern Panalytical Zetasizer Pro. The Z-average and polydispersity index were recorded.
Lipid Nanoparticles (LNPs) were formed using a Precision Nanosystems Ignite instrument with a ‘NextGen’ mixing chamber. […] A 3:1 aqueous to ethanol mixing ratio was used. The formulated LNPs were then dialyzed in 1 L of water and exchanged 2 times over 18 hours. Dialyzed LNPs were filtered using 0.2 µm filter. Prior to in vivo dosing, LNPs were diluted in PBS. LNP sizes were determined by dynamic light scattering. A cuvette with 1 mL of 20 μg/mL LNPs in PBS (pH 7.4) was measured for Z-average using the Malvern Panalytical Zetasizer Pro. The Z-average and polydispersity index were recorded.
Lipid Nanoparticles (LNPs) were formed using a Precision Nanosystems Ignite instrument with a ‘NextGen’ mixing chamber. […] A 3:1 aqueous to ethanol mixing ratio was used. The formulated LNPs were then dialyzed in 1 L of 1×PBS and exchanged 2 times over 18 hours. Dialyzed LNPs were filtered using 0.2 µm filter. Prior to in vivo dosing, LNPs were diluted in PBS. LNP sizes were determined by dynamic light scattering. A cuvette with 1 mL of 20 μg/mL LNPs in PBS (pH 7.4) was measured for Z-average using the Malvern Panalytical Zetasizer Pro. The Z-average and polydispersity index were recorded.
Female CD-1 or female c57BL/6J mice ranging from 22-25 g were dosed at 0.5 mg/kg RNA intravenously. Six hours after injection, mice were injected intraperitoneally with 200 μL of D-luciferin at 15 mg/mL concentration. 5 minutes after injection, mice were anesthetized using isoflurane, and placed inside the IVIS Spectrum In Vivo Imaging System (Perkin Elmer) with dorsal side up. Post 10 minutes injection, mice were scanned for luminescence. Mice were euthanized and organs were extracted within 25 minutes of luciferin injection to scan for luminescence in liver, spleen, kidneys, lungs, and heart. Images (FIGS. 33A-B, 34A-B, 35A-B) were analyzed using Living Images (Perkin Elmer) software. Regions of interest were drawn to obtain flux and average radiance and analyzed for biodistribution of protein expression (FIG. 32A-B).

primary human T cells = assay: LNP transfection of primary human activated T cells with FLuc circRNA with or without ApoE3; type: cell-based; conditions: 4 independent donors
Procedure: Primary human T cells from independent donors were stimulated with aCD3/aCD28 and allowed to proliferate for 6 days in the presence of human serum and IL-2. Then, 100,000 cells were plated in a 96 well plate and LNPs containing circRNA coding for Firefly Luciferase (FLuc) were added to the cells at 200 ng RNA/well with or without Apolipoprotein E3 (ApoE3). After 24-hour incubation, luminescence was quantified using the Bright-Glo Luciferase Assay System (Promega) according to manufacturer's instructions and background luminescence from cells not treated with LNPs was subtracted. […] (See Example 70 for LNP formulation procesure, e.g., for 10a-27 (5.7A), 10a-26 (5.7A), 10a-27 (4.5D), and 10a-26 (4.5D) LNPs.)

## CCCCCCCCC(CCCCCC)C(=O)OCCCCCCN(CCCCCCOC(=O)C(CCCCCC)CCCCCCCC)CCCn1ccnc1 (stereo not drawn) [Lipid 10a-26, ((3-(1H-imidazol-1-yl)propyl)azanediyl)bis(hexane-6,1-diyl) bis(2-hexyldecanoate)]
Splenic immune cells
  delivery of circular RNAs to splenic immune cell subsets: effective at delivering circular RNAs to many splenic immune cell subsets
  proportion of splenic immune cells expressing tdTomato (transfection): significantly higher myeloid and T cell transfection
CD-1 or c57BL/6J mice; 0.5 mg/kg RNA intravenously
  ex vivo IVIS analysis of tissues, overall expression: increased overall expression
CD-1 or c57BL/6J mice; 0.5 mg/kg RNA intravenously, six hours, compared to LNPs made with lipids 22-S14 and 93-S14
  whole-body total flux: increased whole-body total flux
CD-1 or c57BL/6J mice
  spleen to liver ratios: maintaining the desired spleen to liver ratios

## CCCCCCCCC(CCCCCC)C(=O)OCCCCCCN(CCCCCCOC(=O)C(CCCCCC)CCCCCCCC)CCCn1ccnc1C (stereo not drawn) [Lipid 10a-27, ((3-(2-methyl-1H-imidazol-1-yl)propyl)azanediyl)bis(hexane-6,1-diyl) bis(2-hexyldecanoate)]
Primary human T cells
  Firefly luminescence: generally produced higher luminescence
Splenic immune cells
  delivery of circular RNAs to splenic immune cell subsets: effective at delivering circular RNAs to many splenic immune cell subsets
Splenic immune cells; 0.5 mg/kg
  proportion of splenic immune cells expressing tdTomato (transfection): significantly higher myeloid and T cell transfection; also recorded: transfect significantly more splenic immune cells

## CCCCCCCCCOC(=O)CCCCCCCN(CCCCCCCC(=O)OC(CCCCCCCC)CCCCCCCC)CCCn1ccnc1 [Lipid 10a-53, heptadecan-9-yl 8-((3-(1H-imidazol-1-yl)propyl)(8-(nonyloxy)-8-oxooctyl)amino)octanoate]
CD-1 or c57BL/6J mice
  spleen to liver ratios: maintaining the desired spleen to liver ratios

## CCCCCCCCCOC(=O)CCCCCCCN(CCCCCCCC(=O)OC(CCCCCCCC)CCCCCCCC)CCCn1ccnc1C [Lipid 10a-54, heptadecan-9-yl 8-((3-(2-methyl-1H-imidazol-1-yl)propyl)(8-(nonyloxy)-8-oxooctyl)amino)octanoate]
CD-1 or c57BL/6J mice
  spleen to liver ratios: maintaining the desired spleen to liver ratios

## CCCCCCCCCOC(=O)CCCCCCCN(CCO)CCCCCCCC(=O)OC(CCCCCCCC)CCCCCCCC [Lipid 10b-15]
Splenic immune cells
  delivery of circular RNAs to splenic immune cell subsets: effective at delivering circular RNAs to many splenic immune cell subsets
CD-1 or c57BL/6J mice
  spleen to liver ratios: maintaining the desired spleen to liver ratios
